How the values were obtained:
human ASK1 = human ASK1 (Homo sapiens (Human), UniProt Q99683); assay: ASK1 autophosphorylation (Thr838) assay in HEK293 cells overexpressing human ASK1; format: cell-based; settings: for IC50: H2O2-stimulated (1 mM, 10 min) ASK1 autophosphorylation at Thr838, HEK293 cells, HTRF, mean ± standard deviation, read-out: HEK pASK1 IC50; for Efficacy (%): HEK pASK1 assay, relative to standard inhibitor (100%) and DMSO vehicle (0%)
[1] = molecular target: recombinant human ASK1 (hASK1) catalytic domain (Homo sapiens (Human), UniProt Q99683); assay: ASK1 enzymatic assay (ADP-Glo Kinase Assay); format: biochemical; settings: for IC50: ADP production, MKK6 300 nM substrate, ATP 100 uM, mean ± standard deviation; for Efficacy (%): hASK1 enzymatic assay, relative to standard inhibitor (100%) and DMSO vehicle (0%)
From the text: The purpose of this assay is to determine the effect of ASK1 inhibitors on the production of ADP by ASK1. The recombinant human ASK1 (hASK1) catalytic domain tagged with Glutathione S-transferase is used, and histidine-tagged full-length human MAP kinase kinase 6 (MKK6) and ATP are the substrate and cofactor, respectively.
The assay is done using an ADP-Glo™ Kinase Assay Kit (Promega, Catalog #V9102) according to the manufacturer's protocol with the following modifications. Briefly, hASK1 (0.25 nM) and MKK6 (300 nM) in a buffer (10 mM MOPS pH 7.0; 10 mM Mg-Acetate; 1 mM DTT; 0.025% NP-40; 0.05% BSA; 1.5% glycerol) are incubated with ASK1 inhibitors at varying concentrations ranging from 10.00 uM to 0.17 nM for 15 minutes, followed by incubation with ATP (100 uM) for 30 minutes at room temperature. ADP-Glo™ Reagent is added to terminate the kinase reaction and deplete the remaining ATP. The Kinase Detection Reagent is then added to convert ADP to ATP. The newly synthesized ATP is measured using a luciferase/luciferin reaction, and the luminescence determined by Envision (PerkinElmer). The luminescence intensities are analyzed by GeneData, and fit to a 4 parameter dose response-inhibitor logistics curve to determine IC50 values, using the effects of 5-(4-cyclopropyl-1H-imidazol-1-yl)-2-fluoro-4-methyl-N-{6-[4-(propan-2-yl)-4H-1,2,4-triazol-3-yl]pyridin-2-yl}benzamide as a standard and DMSO vehicle for 100% and 0% inhibition, respectively.

Chain of recombinant human ASK1 (hASK1) catalytic domain (Q99683 680-938): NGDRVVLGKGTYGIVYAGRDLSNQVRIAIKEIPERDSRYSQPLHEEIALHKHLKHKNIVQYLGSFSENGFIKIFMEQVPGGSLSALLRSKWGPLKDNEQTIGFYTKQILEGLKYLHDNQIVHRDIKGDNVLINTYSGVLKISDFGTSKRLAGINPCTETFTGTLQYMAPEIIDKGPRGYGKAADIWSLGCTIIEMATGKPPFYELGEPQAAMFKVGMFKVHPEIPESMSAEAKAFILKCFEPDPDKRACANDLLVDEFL
Chain of human ASK1 (Q99683 whole entry, the tested form may be a part): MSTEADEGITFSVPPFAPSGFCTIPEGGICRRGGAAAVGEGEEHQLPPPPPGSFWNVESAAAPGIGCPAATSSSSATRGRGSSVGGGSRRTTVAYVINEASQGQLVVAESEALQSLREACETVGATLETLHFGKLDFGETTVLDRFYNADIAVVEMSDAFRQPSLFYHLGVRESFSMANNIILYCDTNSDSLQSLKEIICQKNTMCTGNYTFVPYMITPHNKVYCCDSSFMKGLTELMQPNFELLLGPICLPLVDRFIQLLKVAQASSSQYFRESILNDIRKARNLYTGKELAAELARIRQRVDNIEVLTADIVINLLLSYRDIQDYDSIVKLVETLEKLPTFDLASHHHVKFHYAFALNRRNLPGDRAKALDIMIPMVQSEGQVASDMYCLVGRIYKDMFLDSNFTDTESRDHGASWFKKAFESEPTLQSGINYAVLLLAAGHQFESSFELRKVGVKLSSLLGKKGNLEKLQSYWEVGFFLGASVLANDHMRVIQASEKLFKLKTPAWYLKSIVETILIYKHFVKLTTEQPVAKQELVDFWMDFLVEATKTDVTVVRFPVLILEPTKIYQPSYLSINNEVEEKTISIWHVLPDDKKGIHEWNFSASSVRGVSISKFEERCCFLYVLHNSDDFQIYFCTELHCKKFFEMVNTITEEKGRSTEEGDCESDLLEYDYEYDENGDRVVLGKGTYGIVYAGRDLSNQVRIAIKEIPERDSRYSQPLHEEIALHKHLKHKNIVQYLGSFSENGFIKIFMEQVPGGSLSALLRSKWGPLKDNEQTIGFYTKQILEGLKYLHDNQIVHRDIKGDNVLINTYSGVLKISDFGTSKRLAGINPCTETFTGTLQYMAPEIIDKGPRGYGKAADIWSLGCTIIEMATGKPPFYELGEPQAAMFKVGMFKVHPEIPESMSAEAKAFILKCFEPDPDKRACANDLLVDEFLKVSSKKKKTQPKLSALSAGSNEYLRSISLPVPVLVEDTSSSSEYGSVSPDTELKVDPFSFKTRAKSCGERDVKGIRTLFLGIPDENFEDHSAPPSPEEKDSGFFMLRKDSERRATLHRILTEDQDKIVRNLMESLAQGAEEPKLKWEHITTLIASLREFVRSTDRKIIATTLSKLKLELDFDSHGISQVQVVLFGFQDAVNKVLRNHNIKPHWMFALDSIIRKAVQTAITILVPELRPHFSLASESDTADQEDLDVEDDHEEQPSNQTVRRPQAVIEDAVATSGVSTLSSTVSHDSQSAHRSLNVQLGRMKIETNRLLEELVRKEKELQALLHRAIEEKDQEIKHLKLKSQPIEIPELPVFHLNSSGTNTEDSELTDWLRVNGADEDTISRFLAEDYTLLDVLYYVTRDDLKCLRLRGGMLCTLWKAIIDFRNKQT

Row | IC50 (human ASK1) | Efficacy (%) (human ASK1) | IC50 [1] | Efficacy (%) [1] | SMILES
1 | 38.6 ± 2.4 nM | 107% | 3.6 ± 0.8 nM | 101% | Cc1cc2c(cc1-c1cnn(C(C)C)c1)C(=O)N(c1cccc(-c3nncn3C(C)C)n1)CC2 [Example 1, 7-(1-Isopropylpyrazol-4-yl)-2-[6-(4-isopropyl-1,2,4-triazol-3-yl)-2-pyridyl]-6-methyl-3,4-dihydroisoquinolin-1-one]
2 | 13.1 ± 2.8 nM | 103% | 1.8 ± 0.4 nM | 100.5% | Cc1cc2c(cc1-n1cnc(C3CC3)c1)C(=O)N(c1cccc(-c3nncn3C(C)C)n1)CC2 [Example 2, 7-(4-Cyclopropylimidazol-1-yl)-2-[6-(4-isopropyl-1,2,4-triazol-3-yl)-2-pyridyl]-6-methyl-3,4-dihydroisoquinolin-1-one]
3 | 31.5 ± 6.6 nM | 107% | 3.8 ± 0.9 nM | 100.1% | CC(C)n1cnnc1-c1cccc(N2CCc3ncc(-n4cnc(C5CC5)c4)cc3C2=O)n1.Cl [Example 3, 3-(4-Cyclopropylimidazol-1-yl)-6-[6-(4-isopropyl-1,2,4-triazol-3-yl)-2-pyridyl]-7,8-dihydro-1,6-naphthyridin-5-one; hydrochloride]
4 | 41.9 ± 0.5 nM | 105% | 4.2 ± 0.8 nM | 99.8% | CC(C)n1cc(-c2cnc3c(c2)C(=O)N(c2cccc(-c4nncn4C(C)C)n2)CC3)cn1 [Example 4, 3-(1-Isopropylpyrazol-4-yl)-6-[6-(4-isopropyl-1,2,4-triazol-3-yl)-2-pyridyl]-7,8-dihydro-1,6-naphthyridin-5-one]
